Among the data in ChEMBL document CHEMBL4261582, “Natural products as inhibitors of Leishmania major dihydroorotate dehydrogenase” (Eur J Med Chem, 2018) are inhibition, ΔTm and IC50 values, retold here.

SMILES strings stand for the structures.

In general, inhibition refers to the share of the control response that was lost under treatment. In general, ΔTm refers to the change in melting temperature against a reference sample. The term IC50 denotes the concentration needed to halve the response being measured.

The target in assay [1] is Dihydroorotate dehydrogenase (quinone), mitochondrial (Homo sapiens) (UniProt Q02127). Put plainly: Inhibition of human DHODH at 100 uM.
Sequence of Dihydroorotate dehydrogenase (quinone), mitochondrial (Homo sapiens) (Q02127 whole entry): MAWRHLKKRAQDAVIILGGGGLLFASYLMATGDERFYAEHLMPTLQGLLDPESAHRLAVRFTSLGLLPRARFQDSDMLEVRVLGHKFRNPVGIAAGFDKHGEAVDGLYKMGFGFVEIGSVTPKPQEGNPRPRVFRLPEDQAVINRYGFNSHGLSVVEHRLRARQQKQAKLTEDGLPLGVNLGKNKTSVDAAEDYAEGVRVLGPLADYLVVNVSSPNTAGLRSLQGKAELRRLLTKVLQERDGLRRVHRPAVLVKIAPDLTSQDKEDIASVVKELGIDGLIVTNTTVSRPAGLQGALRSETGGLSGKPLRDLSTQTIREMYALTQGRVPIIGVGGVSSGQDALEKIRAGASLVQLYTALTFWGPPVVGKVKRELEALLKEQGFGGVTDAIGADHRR
The target in assay [2] is T1, Dihydroorotate dehydrogenase (fumarate) (Leishmania major) (UniProt Q4QEW7).
T1 sequence (whole entry): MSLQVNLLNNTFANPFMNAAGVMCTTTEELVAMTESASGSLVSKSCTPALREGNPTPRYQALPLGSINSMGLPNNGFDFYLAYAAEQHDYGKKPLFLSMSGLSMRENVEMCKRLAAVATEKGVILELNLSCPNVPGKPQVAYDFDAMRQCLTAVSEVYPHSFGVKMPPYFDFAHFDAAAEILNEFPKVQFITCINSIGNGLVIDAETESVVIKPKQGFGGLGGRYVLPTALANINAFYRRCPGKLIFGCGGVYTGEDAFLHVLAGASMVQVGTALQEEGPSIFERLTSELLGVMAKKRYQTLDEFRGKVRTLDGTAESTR
Put plainly: Binding affinity to Leishmania major DHODH assessed as change in melting temperature at 500 uM by SYPRO orange dye-based differential scanning fluorimetry. For orientation: DSF heats the sample and reads unfolding from a dye or from intrinsic fluorescence.

Assay [3] deals with T1, Dihydroorotate dehydrogenase (fumarate) (Leishmania major). Briefly: Inhibition of recombinant oligo-histidine-tagged Leishmania major DHODH expressed in Escherichia coli BL21(DE3) cells at 100 uM using DHO as substrate measured after 60 secs.
Assay [4] shares this target. Briefly: Binding affinity to Leishmania major DHODH assessed as change in melting temperature at 1000 uM by SYPRO orange dye-based differential scanning fluorimetry.
Assay [5] has the same target. Briefly: Binding affinity to Leishmania major DHODH assessed as change in melting temperature at 100 uM by differential scanning fluorimetry-based ThermoFMN assay.
Assay [6] shares this target. Put plainly: Binding affinity to Leishmania major DHODH assessed as change in melting temperature at 500 uM by differential scanning fluorimetry-based ThermoFMN assay.
For assay [7] the target is unchanged. Briefly: Binding affinity to Leishmania major DHODH assessed as change in melting temperature at 1000 uM by differential scanning fluorimetry-based ThermoFMN assay.
Assay [8] addresses T2, Dihydroorotate dehydrogenase (fumarate) (Leishmania major, UniProt Q4QEW7).
T2 sequence (Q4QEW7 whole entry): T1 sequence (whole entry)
Briefly: Inhibition of recombinant oligo-histidine-tagged Leishmania major DHODH expressed in Escherichia coli BL21(DE3) cells using DHO as substrate measured after 60 secs. The conditions noted are these: read-out: IC50.

In assay [9] the target is T1, Dihydroorotate dehydrogenase (fumarate) (Leishmania major). Put plainly: Binding affinity to Leishmania major DHODH assessed as change in melting temperature at 100 uM by SYPRO orange dye-based differential scanning fluorimetry.
Assay [10] deals with Leishmania major. Briefly: Antileishmanial activity against Leishmania major promastigotes. The format is functional, organism-based.
The subject of assay [11] is Leishmania major. Briefly: Antileishmanial activity against Leishmania major amastigotes. The format is functional, organism-based.
For assay [12], the system named is Leishmania amazonensis. Put plainly: Antileishmanial activity against Leishmania amazonensis MHOM/77BR/LTB0016 promastigotes after 72 hrs by MTT assay. The format is functional, organism-based. The conditions noted are these: MHOM/77BR/LTB0016, 72 h. For orientation: Tetrazolium dyes change colour on reduction, which living cells bring about.
The test system of assay [13] is Trypanosoma cruzi. Put plainly: Antitrypanosomal activity against Trypanosoma cruzi Tulahuen C2C4 trypomastigotes infected in rat skeletal myoblasts L-6 cells after 96 hrs by CPRG/Nonidet reagent based spectrophotometric method. The conditions noted are these: Tulahuen C2C4, L6, 96 h. The format is functional, organism-based.
Assay [14] deals with Leishmania amazonensis. Briefly: Antileishmanial activity against Leishmania amazonensis MHOM/77BR/LTB0016 amastigotes infected in mouse peritoneal macrophages after 48 hrs by Giemsa staining-based assay. The format is functional, organism-based. The conditions noted are these: MHOM/77BR/LTB0016, 48 h.
The subject of assay [15] is Leishmania donovani. Briefly: Antileishmanial activity against Leishmania donovani MHOM/ET/67/L82 amastigotes after 72 hrs by Alamar Blue assay. The format is functional, organism-based. The conditions noted are these: MHOM/ET/67/L82, 72 h. On the technique in general: The colour change of resazurin is a common sign of viable cells or microbes.
For assay [16], the system named is Trypanosoma brucei rhodesiense. Put plainly: Antitrypanosomal activity against Trypanosoma brucei rhodesiense STIB 900 trypomastigotes after 72 hrs by Alamar Blue assay. The conditions noted are these: STIB 900, 72 h. The format is functional, organism-based.
Assay [17] deals with Leishmania amazonensis. Put plainly: Antileishmanial activity against Leishmania amazonensis IFLA/BR/1967/PH-8 promastigotes after 48 hrs by MTT assay. The format is functional, organism-based. The conditions noted are these: IFLA/BR/1967/PH-8, 48 h.
Assay [18] deals with Leishmania amazonensis. Briefly: Antileishmanial activity against Leishmania amazonensis promastigotes. The format is functional, organism-based.
The test system of assay [19] is Leishmania amazonensis. Put plainly: Antileishmanial activity against Leishmania amazonensis. The format is functional, organism-based.
For assay [20], the system named is Leishmania donovani. Briefly: Antileishmanial activity against Leishmania donovani. The format is functional, organism-based.
In another assay the test system is Leishmania braziliensis. Put plainly: Antileishmanial activity against Leishmania braziliensis. The format is functional, organism-based.
The test system of another assay is Trypanosoma brucei. Put plainly: Antitrypanosomal activity against Trypanosoma brucei TC221 trypomastigotes after 24 hrs by Alamar Blue assay. The format is functional, organism-based. The conditions noted are these: TC221, 24 h.
For another assay, the system named is Trypanosoma congolense. Briefly: Antitrypanosomal activity against Trypanosoma congolense STIB 910 trypomastigotes after 24 hrs by Alamar Blue assay. The format is functional, organism-based. The conditions noted are these: STIB 910, 24 h.
Assay [21] deals with Leishmania infantum. Put plainly: Antileishmanial activity against Leishmania infantum MHOM/MA(BE)/6 amastigotes infected in mouse J774A.1 cells after 120 hrs by Giemsa staining-based assay. The format is functional, organism-based. The conditions noted are these: MHOM/MA(BE)/6, J774.A1, 120 h.
Assay [22] relates to Leishmania infantum. Briefly: Antileishmanial activity against Leishmania infantum MHOM/MA(BE)/6 promastigotes infected in mouse J774A.1 cells after 120 hrs by Giemsa staining-based assay. The format is functional, organism-based. The conditions noted are these: MHOM/MA(BE)/6, J774.A1, 120 h.
The test system of assay [23] is Leishmania donovani. Put plainly: Antileishmanial activity against Leishmania donovani amastigotes. The format is functional, organism-based.
In assay [24] the test system is Trypanosoma brucei rhodesiense. Put plainly: Antitrypanosomal activity against Trypanosoma brucei rhodesiense STIB900 trypomastigotes. The format is functional, organism-based.
Assay [25] deals with Trypanosoma cruzi. Briefly: Antitrypanosomal activity against Trypanosoma cruzi trypomastigotes. The format is functional, organism-based.
Assay [26] deals with Leishmania amazonensis. Briefly: Antileishmanial activity against Leishmania amazonensis WHOM/BR/75/Josefa amastigotes after 72 hrs by Neubauer chamber method. The format is functional, organism-based.
The test system of assay [27] is Leishmania amazonensis. Put plainly: Antileishmanial activity against Leishmania amazonensis WHOM/BR/75/Josefa promastigotes after 72 hrs by Neubauer chamber method. The format is functional, organism-based.

With `C[C@@H]1CC[C@H]2[C@@H](C)C(=O)O[C@@H]3O[C@@]4(C)CC[C@@H]1[C@]32OO4` [ARTEMISININ], the values for the inhibition in [1] and in assay [3] were 0% and 44%, respectively. For the same molecule, the ΔTm in assay [2] was -0.22 °C; in [4], -0.52 °C; in assay [5], -0.13 °C; in assay [6], -0.35 °C; in assay [7], -0.4 °C; in assay [9], -0.14 °C. For the same molecule, the values for the IC50 (in [8]; in the assay on Leishmania major [10]; in the assay with Leishmania major [11]) were 172 µM, 0.75 µM and 0.3 µM, respectively.

Consider `O=C(O)/C=C/c1ccc(O)c(O)c1` [CAFFEIC ACID], for which the 50% inhibitory concentration (IC50) with Leishmania amazonensis [12] is 5.2 µM; in the assay on Trypanosoma cruzi [13], 167 µM; with Leishmania amazonensis [14], 16 µM; in the assay on Leishmania donovani [15] it was 31.1 µM; in assay [8], 1750 µM; in assay [16] it was 6.11 µM.

With `Oc1cc(O)c2c(c1)O[C@H](c1ccc(O)c(O)c1)[C@@H](O)C2` [CIANIDANOL], the inhibition in assay [1] turned out to be 38%; in [3], 52%. The concentration for half-maximal inhibition (IC50) was 310 µM with Trypanosoma cruzi [13]; 153 µM in the assay on Leishmania amazonensis [17]; 103 µM in the assay on Leishmania donovani [15]; 98.3 µM in assay [8]; 50 µM in assay [16].

As for `O=C(O)/C=C/c1ccccc1` [CINNAMIC ACID], the IC50 stood at 203 µM in the assay on Trypanosoma cruzi [13]; 37.8 µM in the assay with Leishmania donovani [15]; 15.5 µM in the assay with Leishmania amazonensis [18]; 392 µM in assay [8]; 223 µM in assay [16].

With `O=c1ccc2ccccc2o1` [COUMARIN], the IC50 came to 342 µM with Leishmania amazonensis [19], 342 µM in the assay on Leishmania donovani [20], 342 µM in the assay on Leishmania braziliensis and 642 µM in assay [8].

In the case of `CC[C@H]1CN2CCc3cc(OC)c(OC)cc3[C@@H]2C[C@@H]1C[C@H]1NCCc2cc(OC)c(OC)cc21` [EMETINE], the figures for the IC50 (in the assay on Trypanosoma brucei; in the assay with Trypanosoma congolense; in [8]) were 0.04 µM, 0.43 µM and 1070 µM, respectively.

As for `C/C=C(/C)C(=O)O[C@H]1[C@H](OC(C)=O)[C@]2(CO)[C@H](O)C[C@]3(C)C(=CC[C@@H]4[C@@]5(C)CC[C@H](O[C@@H]6O[C@H](C(=O)O)[C@@H](O[C@@H]7O[C@H](CO)[C@@H](O)[C@H](O)[C@H]7O)[C@H](O)[C@H]6O[C@@H]6O[C@H](CO)[C@@H](O)[C@H](O)[C@H]6O)[C@](C)(CO)[C@@H]5CC[C@]43C)[C@@H]2CC1(C)C` [ESCIN IB], the half-maximal inhibitory concentration (IC50) is 1.37 µM in the assay on Leishmania infantum [21], 478 µM in assay [8] and greater than 14.1 µM in the assay with Leishmania infantum [22].

For `COc1cc(/C=C/C(=O)O)ccc1O` [FERULATE], the concentration for half-maximal inhibition (IC50) with Leishmania amazonensis [12] was found to be 1.7 µM; in the assay with Trypanosoma cruzi [13], 155 µM; in the assay with Leishmania amazonensis [14], 7.9 µM; with Leishmania donovani [15], 155 µM; in assay [8], 413 µM; in [16] it was 428 µM.

Take `C=C(C)C(=O)O[C@H]1C[C@@]2(C)OC(=CC2=O)/C(CO)=C\[C@H]2OC(=O)C(=C)[C@H]12` [GOIAZENSOLIDE]: the thermal shift (ΔTm) was -4.19 °C in assay [2]; -6.51 °C in [4]; -0.32 °C in [5]; -0.84 °C in [6]; -1.13 °C in assay [7]; -0.73 °C in [9]. In addition, the IC50 in the assay on Leishmania donovani [23] came out at 0.45 µM; in [24], 0.07 µM; in the assay with Trypanosoma cruzi [25], 1.08 µM; in [8], 156 µM.

`C=C1C[C@@]23CC[C@H]4[C@@](C)(CCC[C@@]4(C)C(=O)O)[C@@H]2CC[C@@H]1C3` [KAURENOIC ACID]: the inhibition in [1] turned out to be 28%; in assay [3], 40%. In addition, the 50% inhibitory concentration (IC50) was found to be 11.7 µM with Leishmania amazonensis [26], 93.3 µM with Leishmania amazonensis [27] and 31.5 µM in assay [8].
